# Measurements as given in paper PMC7245553 (Cell chemical biology, 2020).
# Several values for one entry are separate records, joined by “and”; a condition that tells them apart may be missing. Equal entries are not always repeated. Where two headings read alike, the source gives them in different places.
# Tests used:
# [1] = Mouse pharmacokinetic profiling; type: in vivo, CD-1 mice
# M. tuberculosis H37Rv [2] = assay: M. tuberculosis MIC assay; conditions: for MIC H37Rv: 90% inhibition of bacterial growth, Alamar blue
# in vitro = type: cell-based; conditions: African green monkey
# physchem = type: physicochemical; conditions: pH 7.4, aqueous buffer, kinetic from dmso stock
# [3] = Mouse liver microsomal stability; type: in vitro ADME; conditions: pH 7.4
# M. tuberculosis [4] = assay: M. tuberculosis killing kinetics; type: cell-based, Mycobacterium tuberculosis; conditions: for cidality in vitro: H37Rv strain; for killing in combination with INH: each at 10× MIC; for reduction in CFUs, killing kinetics: 103 MIC of compound, over 7 days, followed by re-growth
# [5] = type: in vitro ADME; conditions: human, 5 µM
# [6] = system: CYP1A2, CYP2C9, CYP2C19, CYP2D6, CYP3A4 (one value for the profile of isoforms; except 2C19 for compound 10); assay: in vitro; type: in vitro ADME; conditions: human, pH 7.4
# M. tuberculosis [7] = assay: M. tuberculosis MBC assay; type: cell-based; conditions: Mycobacterium tuberculosis
# [8] = type: in vitro ADME; conditions: mouse, 5 µM
# cytochrome P450 2C19 = cytochrome P450 2C19 (Homo sapiens, UniProt P33261); assay: Human cytochrome P450 2C19 inhibition; type: in vitro ADME
# Sequence of cytochrome P450 2C19 (P33261 whole entry): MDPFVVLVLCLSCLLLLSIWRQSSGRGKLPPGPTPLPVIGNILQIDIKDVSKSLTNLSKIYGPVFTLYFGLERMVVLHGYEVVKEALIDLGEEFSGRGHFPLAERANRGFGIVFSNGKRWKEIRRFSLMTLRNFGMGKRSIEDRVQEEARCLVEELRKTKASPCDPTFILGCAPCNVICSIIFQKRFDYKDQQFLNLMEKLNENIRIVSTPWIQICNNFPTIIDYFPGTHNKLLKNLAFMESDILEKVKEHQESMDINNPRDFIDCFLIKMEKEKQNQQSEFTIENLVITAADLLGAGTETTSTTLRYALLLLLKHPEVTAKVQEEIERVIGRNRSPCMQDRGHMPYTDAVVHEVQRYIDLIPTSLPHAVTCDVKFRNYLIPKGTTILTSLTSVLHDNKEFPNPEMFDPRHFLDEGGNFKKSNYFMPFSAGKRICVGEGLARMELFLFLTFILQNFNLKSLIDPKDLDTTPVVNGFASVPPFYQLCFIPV
# [9] = system: M. tuberculosis mc^26206 within J774.1 cells; assay: microbe, parasite or virus in culture; type: cell-based; conditions: Mycobacterium tuberculosis, J774.1, read-out: IC50, intracellular growth of M. tuberculosis mc^26206 within J774.1 cells
# M. tuberculosis H37Rv [10] = assay: Mouse model of acute M. tuberculosis infection; type: in vivo, BALB/c mice; conditions: for bacterial load in the spleen: po qd; for increase of CFU in the lungs versus start of treatment: 100 mg/kg po qd
# M. tuberculosis [11] = assay: Mouse model of chronic M. tuberculosis infection; type: in vivo, BALB/c mice; conditions: for reduction in CFUs, controls: 10 or 20 mg/kg qd po
# M. tuberculosis H37Rv [12] = conditions: acute model, 100 mg/kg qd po, alone; ref Kumar et al., 2018; cited from earlier work
# [13] = pH 7.4; cited from earlier work
# [14] = mouse, microsomes; cited from earlier work
# Vero cells = conditions: cited from earlier work
# M. tuberculosis H37Rv [15] = conditions: cited from earlier work
# Enterobacter cloacae = assay: MIC versus Enterobacter cloacae; type: cell-based
# [16] = system: mycolic acid biosynthesis within M. tuberculosis H37Rv; assay: Mycolic acid biosynthesis analysis; type: cell-based, Mycobacterium tuberculosis
# Enterococcus faecium = assay: MIC versus Enterococcus faecium; type: cell-based
# Klebsiella pneumoniae = assay: MIC versus Klebsiella pneumoniae; type: cell-based
# hERG = hERG (Homo sapiens, UniProt Q12809); assay: hERG inhibition; type: biochemical
# Sequence of hERG (Q12809 whole entry): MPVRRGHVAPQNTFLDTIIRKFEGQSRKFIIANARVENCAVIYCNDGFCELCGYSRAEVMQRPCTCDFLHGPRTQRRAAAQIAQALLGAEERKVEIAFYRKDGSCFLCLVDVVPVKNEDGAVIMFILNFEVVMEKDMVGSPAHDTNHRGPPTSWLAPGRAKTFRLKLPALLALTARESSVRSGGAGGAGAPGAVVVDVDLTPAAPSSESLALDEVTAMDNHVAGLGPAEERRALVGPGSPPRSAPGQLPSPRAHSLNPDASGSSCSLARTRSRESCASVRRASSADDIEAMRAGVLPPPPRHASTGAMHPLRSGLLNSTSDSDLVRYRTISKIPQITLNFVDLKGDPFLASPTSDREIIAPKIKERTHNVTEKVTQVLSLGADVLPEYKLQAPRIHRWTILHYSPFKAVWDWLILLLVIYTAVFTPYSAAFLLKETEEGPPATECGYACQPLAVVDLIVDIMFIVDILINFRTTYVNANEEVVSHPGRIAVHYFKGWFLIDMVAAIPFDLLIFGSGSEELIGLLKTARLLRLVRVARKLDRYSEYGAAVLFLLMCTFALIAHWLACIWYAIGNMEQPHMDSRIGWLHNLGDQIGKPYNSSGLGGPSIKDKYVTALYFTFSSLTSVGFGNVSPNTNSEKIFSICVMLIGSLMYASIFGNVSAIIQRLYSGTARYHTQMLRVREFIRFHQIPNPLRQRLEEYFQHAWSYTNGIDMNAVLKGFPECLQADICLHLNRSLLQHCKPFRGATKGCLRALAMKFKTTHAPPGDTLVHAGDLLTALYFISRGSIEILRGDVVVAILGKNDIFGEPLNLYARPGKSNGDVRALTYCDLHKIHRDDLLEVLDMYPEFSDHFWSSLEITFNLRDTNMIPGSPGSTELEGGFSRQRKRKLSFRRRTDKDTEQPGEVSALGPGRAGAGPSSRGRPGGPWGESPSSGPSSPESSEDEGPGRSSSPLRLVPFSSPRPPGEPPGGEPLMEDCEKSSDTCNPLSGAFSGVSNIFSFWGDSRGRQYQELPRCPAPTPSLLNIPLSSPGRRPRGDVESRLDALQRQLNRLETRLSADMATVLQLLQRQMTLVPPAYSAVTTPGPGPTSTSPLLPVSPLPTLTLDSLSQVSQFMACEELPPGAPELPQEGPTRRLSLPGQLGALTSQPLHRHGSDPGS
# Staphylococcus aureus = assay: MIC versus Staphylococcus aureus; type: cell-based
# [17] = Dog liver microsomal stability; type: in vitro ADME; conditions: pH 7.4
# KasA = KasA (Mycobacterium tuberculosis, UniProt P9WQD9); assay: Microscale thermophoresis binding assay
# Sequence of KasA (P9WQD9 whole entry): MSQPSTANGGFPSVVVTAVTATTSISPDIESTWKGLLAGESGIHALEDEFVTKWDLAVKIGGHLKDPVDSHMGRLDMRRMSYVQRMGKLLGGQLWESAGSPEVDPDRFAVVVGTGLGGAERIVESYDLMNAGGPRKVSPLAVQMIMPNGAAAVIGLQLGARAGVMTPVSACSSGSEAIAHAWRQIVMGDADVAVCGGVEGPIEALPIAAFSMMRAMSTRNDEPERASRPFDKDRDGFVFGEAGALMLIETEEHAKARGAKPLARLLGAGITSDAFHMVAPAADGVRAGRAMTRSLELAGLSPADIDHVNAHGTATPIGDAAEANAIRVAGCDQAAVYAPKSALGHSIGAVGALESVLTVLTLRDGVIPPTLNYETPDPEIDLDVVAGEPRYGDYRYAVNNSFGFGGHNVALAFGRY
# Pseudomonas aeruginosa = assay: MIC versus Pseudomonas aeruginosa; type: cell-based
# [18] = female, CD-1, mouse, in vivo, po
smiles,measurement,setting,value
"O=S(=O)(CCCC(F)(F)F)Nc1ccc2[nH]nc(Cl)c2c1 [Compound 16, N-(3-chloro-1H-indazol-5-yl)-4,4,4-trifluorobutane-1-sulfonamide]",Kp at 5 h,"[1]; female, CD-1, mouse, in vivo",1.2
same,t > MIC,"[1]; female, CD-1, mouse, in vivo",5 h
same,AUC(0-t),[1]; [18],22000 ng·h/mL
same,MIC H37Rv,M. tuberculosis H37Rv [2],0.20 µM
same,CC50,in vitro,> 150 µM
"CCCCCS(=O)(=O)Nc1ccc2[nH]nc(C)c2c1 [Compound 13, N-(3-methyl-1H-indazol-5-yl)pentane-1-sulfonamide]",Kp at 5 h,"[1]; female, CD-1, mouse, in vivo",1.3
same,t > MIC,"[1]; female, CD-1, mouse, in vivo",5 h
same,AUC(0-t),[1]; [18],13900 ng·h/mL
same,MIC H37Rv,M. tuberculosis H37Rv [2],0.12 µM
same,CC50,in vitro,89 µM
same,solubility kinetic at 4 h,physchem,476 µM
same,half-life,[3]; microsomes,3.26 min
"CCCCS(=O)(=O)Nc1ccc2[nH]c(CN)c(C)c2c1 [Compound 11, N-(2-(aminomethyl)-3-methyl-1H-indol-5-yl)butane-1-sulfonamide]",MIC H37Rv,M. tuberculosis H37Rv [2],100 µM
same,CC50,in vitro,170 µM
"Cc1n[nH]c2ccc(NS(=O)(=O)CCCC(F)(F)F)cc12 [Compound 15, 4,4,4-trifluoro-N-(3-methyl-1H-indazol-5-yl)butane-1-sulfonamide]",Kp at 5 h,"[1]; female, CD-1, mouse, in vivo",0.95
same,t > MIC,"[1]; female, CD-1, mouse, in vivo",5 h
same,AUC(0-t),[1]; [18],28400 ng·h/mL
same,MIC H37Rv,M. tuberculosis H37Rv [2],0.25 µM
same,CC50,in vitro,> 160 µM
"CCCCCS(=O)(=O)Nc1ccc2[nH]c(C#N)c(C)c2c1 [Compound 10, N-(2-cyano-3-methyl-1H-indol-5-yl)pentane-1-sulfonamide]",cidality in vitro,M. tuberculosis [4],in vitro bactericidal
same,killing in combination with INH,M. tuberculosis [4],culture sterilization
same,plasma stability at 5 h,[5],≥ 80%
same,IC50 at 20 min,[6],> 1 µM
same,MIC H37Rv,M. tuberculosis H37Rv [2],0.2 µM and 0.20 µM
same,CC50,in vitro,160 µM
same,MBC,M. tuberculosis [7],0.65 to 1.3 µM
same,plasma stability at 5 h,[8],≥ 80%
same,IC50,cytochrome P450 2C19,0.542 µM
same,IC50,[9],0.078 µM
same,bacterial growth in the lungs,M. tuberculosis H37Rv [10]; 100 mg/kg,permissive of bacterial growth in the lungs
same,activity in the lungs,M. tuberculosis H37Rv [10]; 200-mg/kg dosing regimen,bacteriostatic activity in the lungs
same,bacterial load in the spleen,M. tuberculosis H37Rv [10],did not reduce the bacterial load in the spleen
same,half-life,[3]; mouse liver microsomes,4.08 min
"CCCCS(=O)(=O)Nc1ccc2[nH]nc(Cl)c2c1 [Compound 14, N-(3-chloro-1H-indazol-5-yl)butane-1-sulfonamide]",Kp at 5 h,"[1]; female, CD-1, mouse, in vivo",0.6
same,t > MIC,"[1]; female, CD-1, mouse, in vivo",5 h
same,AUC(0-t),[1]; [18],51700 ng·h/mL
same,MIC H37Rv,M. tuberculosis H37Rv [2],0.39 µM
same,CC50,in vitro,22 µM
same,solubility kinetic at 4 h,physchem,443 µM
same,half-life,[3]; microsomes,32.1 min
"CCCCS(=O)(=O)Nc1ccc2[nH]cc(C)c2c1 [Compound 4, N-(3-methyl-1H-indol-5-yl)butane-1-sulfonamide]",MIC H37Rv,M. tuberculosis H37Rv [2],1.6 µM
same,CC50,in vitro,> 190 µM
"CCCCS(=O)(=O)Nc1ccc2[nH]c(C(N)=O)c(C)c2c1 [Compound 8, 5-(butylsulfonamido)-3-methyl-1H-indole-2-carboxamide]",MIC H37Rv,M. tuberculosis H37Rv [2],3.1 µM
same,CC50,in vitro,> 160 µM
same,solubility kinetic at 4 h,physchem,45.5 µM
same,half-life,[3]; microsomes,6.16 min
"CO[C@H]1/C=C/O[C@@]2(C)Oc3c(C)c(O)c4c(O)c(c(/C=N/N5CCN(C)CC5)c(O)c4c3C2=O)NC(=O)/C(C)=C\C=C\[C@H](C)[C@H](O)[C@@H](C)[C@@H](O)[C@@H](C)[C@H](OC(C)=O)[C@@H]1C [RIF, rifampicin, reference compound]","reduction in CFUs, controls",M. tuberculosis [11]; 4 weeks,~ 2 log10
same,IC50,[9],0.3 µM
"CCCCS(=O)(=O)Nc1ccc2[nH]c(C#N)c(C)c2c1 [Compound 9, N-(2-cyano-3-methyl-1H-indol-5-yl)butane-1-sulfonamide]","reduction in CFUs, killing kinetics",M. tuberculosis [4],> 2 log10
same,cidality in vitro,M. tuberculosis [4],in vitro bactericidal
same,plasma stability at 5 h,[5],≥ 80%
same,IC50 at 20 min,[6],> 1 µM
same,MIC H37Rv,M. tuberculosis H37Rv [2],0.78 µM
same,MIC,M. tuberculosis H37Rv [2]; H37Rv,780 µM
same,CC50,in vitro,170 µM
same,MBC,M. tuberculosis [7],1.4 to 2.7 µM
same,plasma stability at 5 h,[8],≥ 80%
same,IC50,[9],0.19 µM
same,increase of CFU in the lungs versus start of treatment,M. tuberculosis H37Rv [10],about 1 log10 CFU
same,bacterial load in the spleen,M. tuberculosis H37Rv [10],did not reduce the bacterial load in the spleen
same,half-life,[3]; mouse liver microsomes,6.51 min
"CCCCCS(=O)(=O)Nc1ccc2[nH]nc(Cl)c2c1 [Compound 17, N-(3-chloro-1H-indazol-5-yl)pentane-1-sulfonamide]",Kp at 5 h,"[1]; female, CD-1, mouse, in vivo",1.7
same,t > MIC,"[1]; female, CD-1, mouse, in vivo",5 h
same,AUC(0-t),[1]; [18],34800 ng·h/mL
same,MIC H37Rv,M. tuberculosis H37Rv [2],0.39 µM
same,CC50,in vitro,170 µM
"NNC(=O)c1ccncc1 [INH, isoniazid, reference compound]","reduction in CFU, killing kinetics","M. tuberculosis [4]; 103 MIC, over 4 days, with rapid re-growth",> 3 log10
same,"reduction in CFUs, controls",M. tuberculosis [11]; 4 weeks,~ 2 log10
same,IC50,[9],0.5 µM
"CCCCS(=O)(=O)Nc1ccc2[nH]c(C(=O)OCC)c(C)c2c1 [Compound 5, ethyl 5-(butylsulfonamido)-3-methyl-1H-indole-2-carboxylate]",MIC H37Rv,M. tuberculosis H37Rv [2],0.20 µM
same,CC50,in vitro,> 150 µM
same,solubility kinetic at 4 h,physchem,0.895 µM
same,half-life,[3]; microsomes,< 0.5 min
CCCCS(=O)(=O)Nc1ccc2cnn(C)c2c1 [DG167],bacterial load of mouse lungs versus start of treatment,M. tuberculosis H37Rv [12],did not reduce the bacterial load of mouse lungs
same,"reduction in CFUs, killing kinetics",M. tuberculosis [4],> 2 log10
same,AUC0–5h/MIC,"[1]; mouse, in vivo, po",20
same,Kinetic Aqueous Solubility,[13],324 µM
same,MLM t1/2,[14],10.1 min
same,CC50,Vero cells,23 µM
same,MIC H37Rv,"M. tuberculosis H37Rv [15]; footnote a, ref Kumar et al. (2018)",0.39 µM
same,MIC against the wild-type H37Rv strain,"M. tuberculosis H37Rv [15]; ref Kumar et al., 2018",390 µM
same,increase of CFU in the lungs versus start of treatment,M. tuberculosis H37Rv [10],about 1 log10 CFU
"Cc1n[nH]c2ccc(NS(=O)(=O)CCCCF)cc12 [JSF-3285, 4-fluoro-N-(3-methyl-1H-indazol-5-yl)butane-1-sulfonamide]",MIC,Enterobacter cloacae,> 50 µg/mL
same,cidality in vitro,M. tuberculosis [4],cidal to the H37Rv strain
same,killing in combination with INH,M. tuberculosis [4],culture sterilization
same,mycolic acid biosynthesis,[16],inhibited mycolic acid biosynthesis
same,MIC,Enterococcus faecium,> 50 µg/mL
same,increase in mouse plasma exposure (AUC0–5h) over DG167,"[1]; female, CD-1, mouse, in vivo",30 fold
same,t > MIC,"[1]; female, CD-1, mouse, in vivo",5 h
same,AUC(0-t),[1]; [18],59300 ng·h/mL
same,Kp at 5 h,"[1]; female, CD-1, mouse, lung and plasma, oral",0.75
same,MIC,Klebsiella pneumoniae,> 50 µg/mL
same,MIC H37Rv,M. tuberculosis H37Rv [2],0.20 µM
same,CC50,in vitro,170 µM
same,improvement of efficacy of INH or RIF regimen on addition,M. tuberculosis [11]; 200 mg/kg added to 10 mg/kg INH or RIF,~ 1 log10
same,additional reduction of bacterial burden compared to INH- and RIF-only treatment,M. tuberculosis [11]; 200 mg/kg alone,~ 1 log10 CFUs
same,reduction of bacterial burden in the mouse lungs versus start of treatment,"M. tuberculosis [11]; 200 mg/kg qd po alone or with 10 mg/kg INH or RIF, 4 weeks",more than 2 log10 CFUs
same,reduction in CFUs in infected lungs,"M. tuberculosis [11]; 200–5 mg/kg qd and 20 mg/kg qd or bid, 4 weeks of treatment",1.5–2.0 log10
same,IC50,hERG,> 50 µM
same,MIC,Staphylococcus aureus,> 50 µg/mL
same,solubility kinetic at 4 h,physchem,175 µM
same,IC50,[9],0.046 µM
same,half-life,[17]; microsomes,48.2 min
same,intrinsic clearance (Clint) in dog liver microsomes,[17],124 µL/min/mg
same,Kd,KasA,0.0707 ± 0.0235 µM
same,MIC,Pseudomonas aeruginosa,> 50 µg/mL
same,reduction in lung bacterial burden (CFUs) versus start of treatment,"M. tuberculosis H37Rv [10]; 100 or 200 mg/kg qd po, 4 weeks of treatment",~ 2 log10
same,half-life,[3]; mouse liver microsomes,28.4 min
"O=S(=O)(CCCCF)Nc1ccc2[nH]nc(Cl)c2c1 [Compound 18, N-(3-chloro-1H-indazol-5-yl)-4-fluorobutane-1-sulfonamide]",MIC H37Rv,M. tuberculosis H37Rv [2],0.20 µM
same,CC50,in vitro,160 µM
